Data published in patent US10206937B2, “Boronic acid derivatives and therapeutic uses thereof” (Qpex Biopharma, Inc., priority 2014, dated 2019).

Tested on: strains of Enterobacteriaceae producing various carbapenemases (class A, D and B; 104 strains)
Test: Antibiotics potentiation by Compound 27 (MIC; meropenem, doripenem, ertapenem, cefepime)
Format: cell-based
Conditions: + 27 = with Compound 27 at fixed 4 μg/ml

Measured: MIC

C[C@@H](O)[C@H]1C(=O)N2C(C(=O)O)=C(S[C@@H]3CN[C@H](C(=O)N(C)C)C3)[C@H](C)[C@H]12 [M]
X (MIC of less than 1 μg/mL): strain KP1167 Klebsiella pneumoniae (SHV-12(2be); VIM-1)
Y (MIC of 1 μg/mL to 10 μg/mL): strain KP1082 Klebsiella pneumoniae (KPC-2, SHV-1) | strain KP1083 Klebsiella pneumoniae (KPC-3, SHV-1, TEM-1) | strain KP1088 Klebsiella pneumoniae (KPC-3, SHV-11, TEM-1) | strain KP1089 Klebsiella pneumonias (OXA-181, CTX-M-15, TEM, SHV) | strain KP1095 Klebsiella pneumoniae (KPC-2 TEM-1 SHV-1) | strain KP1096 Klebsiella pneumoniae (KPC-2 TEM-181 SHV-11) | strain KP1172 Klebsiella pneumoniae (SHV-31(2be); DHA-1; VIM-1) | strain KP1173 Klebsiella pneumoniae (TEM-33(2br); CTX-M-15; IMP-1) | strain KP1174 Klebsiella pneumoniae (CTX-M-14; IMP-1) | strain KP1180 Klebsiella pneumoniae (SHV-OSBL(2b), TEM-OSBL(2b); CTX-M-15; DHA-1; IMP-26) | strain KP1181 Klebsiella pneumoniae (SHV-OSBL(2b); CTX-M-15; IMP-26) | strain KP1184 Klebsiella pneumoniae (SHV-OSBL(2b); IMP-1) | strain KPM1202 Klebsiella pneumoniae (KPC SHV TEM) | strain KPM1203 Klebsiella pneumoniae (KPC SHV TEM) | strain KPM1344 Klebsiella pneumoniae (VIM-1) | strain KX1017 Klebsiella oxytoca (KPC-2, OXA-2, SHV-30) | strain KX1018 Klebsiella oxytoca (KPC-2, SHV-40, OXY-1) | strain KX1019 Klebsiella oxytoca (KPC-2, OXA-2) | strain PM1024 Proteus mirabilis (TEM-1(2b); CMY-16; VIM-1)
Z (MIC of greater than 10 μg/mL): strain KP1081 Klebsiella pneumoniae (NDM-1, TEM-1, SHV-11, CMY-6, CTX-M-15) | strain KP1084 Klebsiella pneumoniae (KPC-3, SHV-11, TEM-1) | strain KP1086 Klebsiella pneumoniae (OXA-48, CTX-M-15, TEM, SHV) | strain KP1087 Klebsiella pneumoniae (KPC-2, CTX-M-15, SHV-11, TEM-1) | strain KP1097 Klebsiella pneumonias (IMP-1) | strain KP1098 Klebsiella pneumoniae (IMP-26) | strain KP1104 Klebsiella pneumoniae (KPC TEM) | strain KP1105 Klebsiella pneumoniae (KPC TEM SHV) | strain KP1159 Klebsiella pneumoniae (SHV-1(2b); CTX-M-15; IMP-4) | strain KP1160 Klebsiella pneumoniae (SHV-28(2be); CTX-M-15; IMP-26) | strain KP1161 Klebsiella pneumoniae (NDM-1) | strain KP1164 Klebsiella pneumoniae (SHV-12(2be); VIM-1) | strain KP1165 Klebsiella pneumoniae (SHV-11(2b); CTX-M-15; VIM-27) | strain KP1166 Klebsiella pneumoniae (SHV-5(2be); VIM-26) | strain KP1169 Klebsiella pneumoniae (SHV-11(2b); VIM-1) | strain KP1170 Klebsiella pneumoniae (SHV-11(2b); CTX-M-15; NDM-1) | strain KP1175 Klebsiella pneumoniae (SHV-OSBL(2b); VIM-1) | strain KP1177 Klebsiella pneumoniae (SHV-OSBL(2b), TEM-OSBL(2b); CTX-M-15; NDM-1) | strain KP1178 Klebsiella pneumoniae (SHV-OSBL(2b;) TEM-OSBL(2b); CTX-M-15; NDM-1) | strain KP1179 Klebsiella pneumoniae (SHV-12(2be), TEM-OSBL(2b); CTX-M-15; NDM-7) | strain KP1183 Klebsiella pneumoniae (SHV-OSBL(2b), TEM-OSBL(2b); CTX-M-15; NDM-1) | strain KP1185 Klebsiella pneumoniae (SHV-OSBL(2b), TEM-OSBL(2b); IMP-4) | strain KP1186 Klebsiella pneumoniae (CTX-M-15; NDM-1) | strain KP1187 Klebsiella pneumoniae (SHV-55(2be), TEM-OSBL(2b); CTX-M-15; NDM-1) | strain KP1188 Klebsiella pneumoniae (SHV-OSBL(2b); CTX-M-15; NDM-1) | strain KP1189 Klebsiella pneumoniae (TEM-OSBL(2b); CTX-M-15; CTX-M-27; NDM-1) | strain KPM1123 Klebsiella pneumoniae (KPC-2 TEM SHV) | strain KPM1345 Klebsiella pneumoniae (VIM-1 SHV) | strain KPM1347 Klebsiella pneumoniae (NDM-1 SHV CTX-M-15) | strain PM1026 Proteus mirabilis (DHA-1; IMP-26) | strain PM1027 Proteus mirabilis (VIM-5) | strain SM1023 Serratia marcescens (VIM-4)
